Experimental data: patent US20230416248A1, “COMPOUNDS AND USES THEREOF” (Foghorn Therapeutics Inc., priority 2020, published 2023)

Tests used:
BRM = molecular target: T1, BRM (Homo sapiens, UniProt P51531); experiment: ATPase catalytic activity of BRM, ADP-Glo in vitro biochemical assay; conditions: for IC50: ADP-Glo ATPase assay, 30 nM BRM, 400 μM ATP; for Ratio* (BRG1 IC50 (μM) divided by BRM IC50 (μM)): selectivity ratio BRG1 IC50 / BRM IC50
T1 construct: made in house; host or cells: High Five insect cells
How it was run: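 ADP-Glo luminescence, after depletion of leftover ATP and conversion of ADP, reported the activity. The 1 h room-temperature reaction held 400 μM ATP, 20 nM salmon sperm DNA and 30 nM BRM in 20 mM Tris pH 8, 20 mM MgCl2, 50 mM NaCl, 0.1% Tween-20, 1 mM DTT.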

BRG-1 = molecular target: T2, BRG-1 (Homo sapiens, UniProt P51532); experiment: ATPase catalytic activity of BRG-1, ADP-Glo in vitro biochemical assay; conditions: ADP-Glo ATPase assay, 30 nM BRG-1, 400 μM ATP; read-out: BRG1 IC50
T2 construct: made in house; host or cells: High Five insect cells
How it was run: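 Once the ATPase reaction finished, leftover ATP was depleted over 40 minutes at room temperature. Generated ADP was next turned back into ATP during a 60-minute room-temperature step. Luciferase-derived light was then measured.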

T1 sequence (P51531 whole entry): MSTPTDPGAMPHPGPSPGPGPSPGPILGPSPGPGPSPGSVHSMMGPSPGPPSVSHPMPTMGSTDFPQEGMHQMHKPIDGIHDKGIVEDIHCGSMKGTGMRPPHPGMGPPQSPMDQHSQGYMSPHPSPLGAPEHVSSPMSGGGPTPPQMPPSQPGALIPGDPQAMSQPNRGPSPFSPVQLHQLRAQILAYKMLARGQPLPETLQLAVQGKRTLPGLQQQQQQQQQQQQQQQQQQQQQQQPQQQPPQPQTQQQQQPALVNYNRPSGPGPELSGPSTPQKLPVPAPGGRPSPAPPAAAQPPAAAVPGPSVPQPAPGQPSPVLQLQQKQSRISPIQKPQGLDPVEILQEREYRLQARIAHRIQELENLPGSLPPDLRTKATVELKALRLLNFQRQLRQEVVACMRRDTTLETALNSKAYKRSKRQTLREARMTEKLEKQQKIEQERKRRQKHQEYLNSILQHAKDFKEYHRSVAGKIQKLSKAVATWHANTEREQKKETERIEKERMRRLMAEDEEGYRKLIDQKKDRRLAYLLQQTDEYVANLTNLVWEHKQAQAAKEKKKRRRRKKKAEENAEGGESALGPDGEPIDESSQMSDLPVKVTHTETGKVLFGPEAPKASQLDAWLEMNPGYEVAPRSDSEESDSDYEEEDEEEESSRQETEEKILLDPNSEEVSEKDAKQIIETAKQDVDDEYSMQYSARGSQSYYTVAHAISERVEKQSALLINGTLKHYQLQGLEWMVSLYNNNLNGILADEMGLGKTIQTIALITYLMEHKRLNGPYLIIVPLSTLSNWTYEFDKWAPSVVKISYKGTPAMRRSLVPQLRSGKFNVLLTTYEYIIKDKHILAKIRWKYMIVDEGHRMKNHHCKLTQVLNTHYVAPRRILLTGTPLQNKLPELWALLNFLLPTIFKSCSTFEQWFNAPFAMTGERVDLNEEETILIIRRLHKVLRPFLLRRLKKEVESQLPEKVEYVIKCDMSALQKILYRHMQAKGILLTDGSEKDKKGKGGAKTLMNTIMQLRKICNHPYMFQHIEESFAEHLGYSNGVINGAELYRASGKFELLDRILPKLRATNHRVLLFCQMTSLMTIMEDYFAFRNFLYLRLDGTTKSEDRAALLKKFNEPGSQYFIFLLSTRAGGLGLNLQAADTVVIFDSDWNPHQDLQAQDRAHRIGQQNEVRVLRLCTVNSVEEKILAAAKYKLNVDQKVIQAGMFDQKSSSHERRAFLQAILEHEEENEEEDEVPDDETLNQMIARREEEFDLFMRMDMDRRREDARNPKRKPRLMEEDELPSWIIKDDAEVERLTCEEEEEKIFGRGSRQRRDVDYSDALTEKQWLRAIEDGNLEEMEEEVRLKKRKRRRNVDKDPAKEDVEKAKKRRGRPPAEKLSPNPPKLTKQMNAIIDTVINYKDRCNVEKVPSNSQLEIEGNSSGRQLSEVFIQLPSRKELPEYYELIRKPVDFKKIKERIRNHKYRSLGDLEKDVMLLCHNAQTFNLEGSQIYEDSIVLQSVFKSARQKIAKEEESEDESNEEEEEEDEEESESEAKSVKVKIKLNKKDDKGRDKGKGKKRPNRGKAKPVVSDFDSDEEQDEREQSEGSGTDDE
T2 sequence (P51532 whole entry): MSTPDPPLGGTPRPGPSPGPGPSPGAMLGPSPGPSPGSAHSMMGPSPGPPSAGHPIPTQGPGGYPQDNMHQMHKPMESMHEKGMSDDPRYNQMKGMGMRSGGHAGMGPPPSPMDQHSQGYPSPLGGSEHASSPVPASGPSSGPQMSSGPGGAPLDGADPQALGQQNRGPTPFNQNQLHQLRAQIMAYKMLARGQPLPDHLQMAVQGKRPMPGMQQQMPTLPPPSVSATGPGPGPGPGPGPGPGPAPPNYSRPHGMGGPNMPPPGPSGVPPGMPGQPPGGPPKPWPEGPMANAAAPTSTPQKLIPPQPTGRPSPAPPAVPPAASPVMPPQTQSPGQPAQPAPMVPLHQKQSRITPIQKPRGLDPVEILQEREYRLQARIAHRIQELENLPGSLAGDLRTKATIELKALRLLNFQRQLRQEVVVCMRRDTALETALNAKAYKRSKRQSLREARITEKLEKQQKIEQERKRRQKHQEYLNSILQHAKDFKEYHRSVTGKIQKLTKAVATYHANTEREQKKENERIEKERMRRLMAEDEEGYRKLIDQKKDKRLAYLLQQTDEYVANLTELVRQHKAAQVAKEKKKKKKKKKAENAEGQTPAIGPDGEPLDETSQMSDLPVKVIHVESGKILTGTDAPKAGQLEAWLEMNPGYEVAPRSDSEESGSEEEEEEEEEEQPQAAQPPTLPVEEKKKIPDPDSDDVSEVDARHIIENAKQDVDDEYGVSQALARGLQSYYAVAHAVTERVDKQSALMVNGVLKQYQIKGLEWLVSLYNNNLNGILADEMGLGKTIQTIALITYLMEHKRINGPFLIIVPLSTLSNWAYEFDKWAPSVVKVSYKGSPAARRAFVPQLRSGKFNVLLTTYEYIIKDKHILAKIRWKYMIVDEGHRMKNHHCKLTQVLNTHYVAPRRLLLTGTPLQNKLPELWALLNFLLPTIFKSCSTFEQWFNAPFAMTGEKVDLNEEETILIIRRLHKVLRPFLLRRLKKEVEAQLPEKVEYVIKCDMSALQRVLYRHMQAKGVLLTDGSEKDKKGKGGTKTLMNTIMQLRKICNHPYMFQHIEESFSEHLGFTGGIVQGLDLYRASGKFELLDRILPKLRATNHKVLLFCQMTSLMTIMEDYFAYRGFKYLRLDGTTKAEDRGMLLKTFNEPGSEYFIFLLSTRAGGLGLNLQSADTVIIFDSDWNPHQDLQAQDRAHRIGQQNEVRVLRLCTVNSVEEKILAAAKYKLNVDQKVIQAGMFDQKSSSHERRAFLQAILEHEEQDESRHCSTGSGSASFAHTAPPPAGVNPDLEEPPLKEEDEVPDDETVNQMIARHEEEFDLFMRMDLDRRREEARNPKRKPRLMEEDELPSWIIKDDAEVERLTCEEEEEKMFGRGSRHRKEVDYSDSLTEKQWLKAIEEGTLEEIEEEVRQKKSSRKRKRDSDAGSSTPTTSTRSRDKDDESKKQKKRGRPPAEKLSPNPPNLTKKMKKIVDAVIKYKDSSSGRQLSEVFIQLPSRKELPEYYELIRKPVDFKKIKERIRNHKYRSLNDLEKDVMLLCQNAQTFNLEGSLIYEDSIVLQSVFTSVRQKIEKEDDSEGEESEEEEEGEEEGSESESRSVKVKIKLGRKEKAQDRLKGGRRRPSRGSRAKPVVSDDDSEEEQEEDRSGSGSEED

Row | Compound | IC50 (BRM) | Ratio* (BRG1 IC50 (μM) divided by BRM IC50 (μM)) (BRM) | IC50 (BRG-1)
1 | CC(c1cccc(-c2ccc3cnc(CNC(=O)c4ccc5c(c4)S(=O)(=O)CCOC5)cc3n2)n1)C(F)F (stereo not drawn) [Compound 203] | 154 nM | 10.23 | 1580 nM
2 | O=C(NCc1cc2nc(-c3cccc(C4CC4)n3)ccc2cn1)c1cnc2c(c1)S(=O)(=O)CCOC2 [Compound 204] | 56.5 nM | 12.01 | 679 nM
3 | O=C(NCc1cc2nc(-c3cccc(CC(F)F)n3)ccc2cn1)c1ccc2c(c1)S(=O)(=O)CCOC2 [Compound 205] | 90.3 nM | 16.45 | 1480 nM
4 | C[C@@H]1CN(c2cccc(-c3ccc4cnc(CNC(=O)c5ccc(C(F)F)c(S(C)(=O)=O)c5)cc4n3)n2)C[C@H](C)O1 [Compound 206] | 8 nM | 13.71 | 110 nM
5 | COCCc1ccc(C(=O)NCc2cc3nc(-c4cncc(C5CC5)n4)ccc3cn2)cc1S(C)(=O)=O [Compound 207] | 407 nM | 12.29 | 5000 nM
6 | O=C(NCc1cc2nc(-c3cccc(C4(C(F)F)CC4)n3)ccc2cn1)c1ccc2c(c1)S(=O)(=O)CCOC2 [Compound 208] | 42.7 nM | 8.84 | 377 nM
7 | O=C(NCc1cc2nc(-c3cncc(C(F)(F)F)n3)ccc2cn1)c1ccc2c(c1)S(=O)(=O)CCOC2 [Compound 209] | 498 nM | 7.27 | 3620 nM
8 | CC1(c2cccc(-c3ccc4cnc(CNC(=O)c5ccc6c(c5)S(=O)(=O)CCOC6)cc4n3)n2)CC1 [Compound 210] | 17.6 nM | 9.92 | 174 nM
9 | C[C@@H]1CN(c2cncc(-c3ccc4cnc(CNC(=O)c5ccc6c(c5)S(=O)(=O)CCOC6)cc4c3)n2)C[C@H](C)O1 [Compound 211] | 7 nM | 3.05 | 21.3 nM
10 | Cc1cc(-c2ccc3cnc(CNC(=O)c4ccc5c(c4)S(=O)(=O)CCOC5)cc3n2)nc(N2C[C@@H](C)O[C@@H](C)C2)c1 [Compound 212] | 14.3 nM | 8.51 | 122 nM
11 | C[C@@H]1CN(c2cccc(-c3ccc4cnc(CNC(=O)c5ccc(Cl)c(S(C)(=O)=O)c5)cc4n3)n2)C[C@H](C)O1 [Compound 213] | 9.5 nM | 13.94 | 132 nM
12 | C[C@@]1(c2cccc(-c3ccc4cnc(CNC(=O)c5ccc6c(c5)S(=O)(=O)CCOC6)cc4n3)n2)CC1(F)F [Compound 214] | 331 nM | 10.01 | 3310 nM
13 | C[C@@H]1CN(c2cccc(-c3ccc4cnc(CNC(=O)c5ccc6c(c5)S(=O)(=O)CCOC6)cc4n3)n2)C[C@@H](C)O1 [Compound 215] | 7 nM | 9.47 | 66.2 nM
14 | C[C@H]1CN(c2cccc(-c3ccc4cnc(CNC(=O)c5ccc6c(c5)S(=O)(=O)CCOC6)cc4n3)n2)C[C@H](C)O1 [Compound 216] | 10.9 nM | 8.63 | 93.7 nM
15 | O=C(NCc1cc2nc(-c3ccnc([C@H]4CC4(F)F)n3)ccc2cn1)c1ccc2c(c1)S(=O)(=O)CCOC2 [Compound 217] | 61.2 nM | 15.77 | 965 nM
16 | O=C(NCc1cc2nc(-c3ccnc([C@@H]4CC4(F)F)n3)ccc2cn1)c1ccc2c(c1)S(=O)(=O)CCOC2 [Compound 218] | 166 nM | 9.79 | 1620 nM
17 | C[C@]1(c2cccc(-c3ccc4cnc(CNC(=O)c5ccc6c(c5)S(=O)(=O)CCOC6)cc4n3)n2)CC1(F)F [Compound 219] | 136 nM | 9.05 | 1230 nM
18 | O=C(NCc1cc2nc(-c3cccc(N4CCCC4)n3)ccc2cn1)c1ccc2c(c1)S(=O)(=O)CCOC2 [Compound 220] | 16 nM | 9.02 | 144 nM
19 | COCC1CN(c2cccc(-c3ccc4cnc(CNC(=O)c5ccc6c(c5)S(=O)(=O)CCOC6)cc4n3)n2)C1 [Compound 221] | 82.3 nM | 9.65 | 794 nM
20 | O=C(NCc1cc2nc(-c3cccc(N4CC[C@@H](F)C4)n3)ccc2cn1)c1ccc2c(c1)S(=O)(=O)CCOC2 [Compound 222] | 12.9 nM | 10.58 | 136 nM
21 | C[C@H]1CN(c2cccc(-c3ccc4cnc(CNC(=O)c5ccc6c(c5)S(=O)(=O)CCOC6)cc4n3)n2)CCO1 [Compound 223] | 6.9 nM | 7.16 | 49.6 nM
22 | O=C(NCc1cc2nc(-c3cccc(N4CC[C@H](F)C4)n3)ccc2cn1)c1ccc2c(c1)S(=O)(=O)CCOC2 [Compound 224] | 25.9 nM | 14.09 | 365 nM

Row | Compound | IC50 (BRM) | Ratio* (BRG1 IC50 (μM) divided by BRM IC50 (μM)) (BRM) | IC50 (BRG-1)
23 | C[C@@H]1CN(c2cccc(-c3ccc4cnc(CNC(=O)c5ccc6c(c5)S(=O)(=O)CCOC6)cc4n3)n2)CCO1 [Compound 225] | 4.6 nM | 6.29 | 28.7 nM
24 | O=C(NCc1cc2nc(-c3cccc(N4CCOCC4)n3)ccc2cn1)c1ccc2c(c1)S(=O)(=O)CCOC2 [Compound 226] | 11.1 nM | 12.29 | 136 nM
25 | COC1CN(c2cccc(-c3ccc4cnc(CNC(=O)c5ccc6c(c5)S(=O)(=O)CCOC6)cc4n3)n2)C1 [Compound 228] | 20.5 nM | 13.77 | 282 nM
26 | O=C(NCc1cc2nc(-c3cccc4c3OCO4)ccc2cn1)c1ccc2c(c1)S(=O)(=O)CCOC2 [Compound 229] | 119 nM | 12.81 | 1520 nM
27 | O=C(NCc1cc2nc(-c3cncc(C4CC4)n3)ccc2cn1)c1cnc2c(c1)S(=O)(=O)CCCC2 [Compound 230] | 41.6 nM | 9.60 | 399 nM
28 | CS(=O)(=O)c1cc(C(=O)NCc2cc3nc(-c4cncc(C5CC5)n4)ccc3cn2)ccc1C(F)F [Compound 231] | 130 nM | 17.98 | 2340 nM
29 | O=C(NCc1cc2nc(-c3ccccc3OC3CC3)ccc2cn1)c1ccc2c(c1)S(=O)(=O)CCOC2 [Compound 232] | 58.5 nM | 7.00 | 410 nM
30 | CN1CCc2c(-c3ccc4cnc(CNC(=O)c5ccc6c(c5)S(=O)(=O)CCOC6)cc4n3)cccc21 [Compound 233] | 77.1 nM | 14.01 | 1080 nM
31 | Cn1cnc2c(-c3ccc4cnc(CNC(=O)c5ccc6c(c5)S(=O)(=O)CCOC6)cc4n3)cccc21 [Compound 234] | 188 nM | 8.09 | 1520 nM
32 | Cn1nccc1-c1cccc(-c2ccc3cnc(CNC(=O)c4ccc5c(c4)S(=O)(=O)CCOC5)cc3n2)c1 [Compound 235] | 154 nM | 7.32 | 1130 nM
33 | O=C(NCc1cc2nc(-c3cncc(C4CC4)n3)ccc2cn1)c1ccc2c(c1)S(=O)(=O)COCC2 [Compound 236] | 34 nM | 12.93 | 440 nM
34 | O=C(NCc1cc2nc(-c3cccc(OC(F)(F)F)n3)ccc2cn1)c1ccc2c(c1)S(=O)(=O)CCOC2 [Compound 237] | 22.7 nM | 20.63 | 468 nM
35 | COCCS(=O)(=O)c1cc(C(=O)NCc2cc3nc(-c4cncc(C5CC5)n4)ccc3cn2)ccc1Cl [Compound 238] | 261 nM | 19.12 | 5000 nM
36 | CCOc1cccc(-c2ccc3cnc(CNC(=O)c4ccc5c(c4)S(=O)(=O)CCOC5)cc3n2)n1 [Compound 239] | 20.6 nM | 20.48 | 422 nM
37 | C[C@@H]1CN(c2cccc(-c3ccc4cnc(CNC(=O)c5cc(F)c6c(c5)S(=O)(=O)CCOC6)cc4n3)n2)C[C@H](C)O1 [Compound 240] | 6.5 nM | 3.66 | 23.8 nM
38 | O=C(NCc1cc2nc(-c3cccc(OC4CC4)n3)ccc2cn1)c1ccc2c(c1)S(=O)(=O)CCOC2 [Compound 241] | 62.3 nM | 17.23 | 1070 nM
39 | O=C(NCc1cc2nc(-c3cccc(OC4COC4)c3)ccc2cn1)c1ccc2c(c1)S(=O)(=O)CCOC2 [Compound 242] | 286 nM | 11.06 | 3170 nM
40 | O=C(NCc1cc2nc(-c3cccc(F)n3)ccc2cn1)c1ccc2c(c1)S(=O)(=O)CCOC2 [Compound 243] | 528 nM | 8.82 | 4660 nM
41 | Cn1ccc(-c2cccc(-c3ccc4cnc(CNC(=O)c5ccc6c(c5)S(=O)(=O)CCOC6)cc4n3)c2)n1 [Compound 244] | 20.7 nM | 16.32 | 337 nM
42 | Cn1ccc2c(-c3ccc4cnc(CNC(=O)c5ccc6c(c5)S(=O)(=O)CCOC6)cc4n3)cccc21 [Compound 245] | 18.7 nM | 9.42 | 176 nM
43 | O=C(NCc1cc2nc(-c3ccccc3Cl)ccc2cn1)c1ccc2c(c1)S(=O)(=O)CCOC2 [Compound 247] | 325 nM | 6.16 | 2000 nM
